{"source": "the OligoGym collection", "note": "Where “and” joins values, the source holds several entries; their conditions need not be identical. Identical values can stand only once. After the bases stand the sugars from the 5' end (letter, count) and the backbone: PS all phosphorothioate, else s phosphorothioate and o phosphodiester by linkage. Methylation of C is not given here. k = constrained ethyl (cEt); d = 2'-deoxy (DNA)", "data": [{"target": "MALAT1", "conditions": "ASO, A431, 0.005 µM", "values": [{"sequence": "CCTAGCTTCATCAAAC (sugars k3 d10 k3, PS)", "target mRNA inhibition": "-2%"}, {"sequence": "TCAGGGTTATGCTTAT (sugars k3 d10 k3, PS)", "target mRNA inhibition": "64% and 59%"}, {"sequence": "GGTCAATAGTGTAAAA (sugars k3 d10 k3, PS)", "target mRNA inhibition": "43%"}, {"sequence": "CAACACTCAGCCTTTA (sugars k3 d10 k3, PS)", "target mRNA inhibition": "-1%"}, {"sequence": "TTTAAAAGATCGCCTT (sugars k3 d10 k3, PS)", "target mRNA inhibition": "50%"}, {"sequence": "CATCACCAAATTGCAC (sugars k3 d10 k3, PS)", "target mRNA inhibition": "28%"}, {"sequence": "CCCAACCGTAACAGGC (sugars k3 d10 k3, PS)", "target mRNA inhibition": "22%"}, {"sequence": "AATCCCCCCCAAGATT (sugars k3 d10 k3, PS)", "target mRNA inhibition": "-5%"}, {"sequence": "TGCGCTTAAGAGGGCA (sugars k3 d10 k3, PS)", "target mRNA inhibition": "7%"}, {"sequence": "GCGAATGGCTTTGTCT (sugars k3 d10 k3, PS)", "target mRNA inhibition": "7%"}, {"sequence": "AATGACGCAATTCTCC (sugars k3 d10 k3, PS)", "target mRNA inhibition": "21%"}, {"sequence": "TGAGTATGCTGATAAA (sugars k3 d10 k3, PS)", "target mRNA inhibition": "41%"}, {"sequence": "GGAACAAGTCCTACAA (sugars k3 d10 k3, PS)", "target mRNA inhibition": "23%"}, {"sequence": "CAGTCCTTTACAGAAG (sugars k3 d10 k3, PS)", "target mRNA inhibition": "12%"}, {"sequence": "GCCCACAGGAACAAGT (sugars k3 d10 k3, PS)", "target mRNA inhibition": "25%"}, {"sequence": "AAGTGGTTGCCCGCTT (sugars k3 d10 k3, PS)", "target mRNA inhibition": "22%"}, {"sequence": "TTGAGATGGACATTGC (sugars k3 d10 k3, PS)", "target mRNA inhibition": "87% and 72%"}, {"sequence": "CTATTGTCCCATAACT (sugars k3 d10 k3, PS)", "target mRNA inhibition": "38%"}, {"sequence": "GATGGACATTGCCTCT (sugars k3 d10 k3, PS)", "target mRNA inhibition": "37%"}, {"sequence": "TGCCAACTTGGAAGTT (sugars k3 d10 k3, PS)", "target mRNA inhibition": "32%"}, {"sequence": "TGTATATAGTTCAAAG (sugars k3 d10 k3, PS)", "target mRNA inhibition": "9%"}, {"sequence": "TAAGTTTTCAGCAGTA (sugars k3 d10 k3, PS)", "target mRNA inhibition": "-14%"}, {"sequence": "AGTAACTACCAGCCAT (sugars k3 d10 k3, PS)", "target mRNA inhibition": "45%"}, {"sequence": "TAAATCATTGGGAGTT (sugars k3 d10 k3, PS)", "target mRNA inhibition": "38%"}, {"sequence": "TCTGATCTGCGGCCCC (sugars k3 d10 k3, PS)", "target mRNA inhibition": "-18%"}, {"sequence": "ATCTCCCACCTGTCTA (sugars k3 d10 k3, PS)", "target mRNA inhibition": "45%"}, {"sequence": "AAGCATTCCTTCGGAT (sugars k3 d10 k3, PS)", "target mRNA inhibition": "-8%"}, {"sequence": "TTTTAGTCACTGGATA (sugars k3 d10 k3, PS)", "target mRNA inhibition": "45%"}, {"sequence": "TAGTTGGCATCAAGGC (sugars k3 d10 k3, PS)", "target mRNA inhibition": "72% and 69%"}, {"sequence": "ACGCCTCAATCCCACA (sugars k3 d10 k3, PS)", "target mRNA inhibition": "27%"}, {"sequence": "ACGGCCCGCACGGAAA (sugars k3 d10 k3, PS)", "target mRNA inhibition": "16%"}, {"sequence": "CTGAAGTTCTCCTGAG (sugars k3 d10 k3, PS)", "target mRNA inhibition": "38%"}, {"sequence": "GATCGCCTTCAAATTA (sugars k3 d10 k3, PS)", "target mRNA inhibition": "39%"}, {"sequence": "GCGGACTTTCTCCCCC (sugars k3 d10 k3, PS)", "target mRNA inhibition": "-24%"}, {"sequence": "AAATCATTGGGAGTTA (sugars k3 d10 k3, PS)", "target mRNA inhibition": "24%"}, {"sequence": "CTAAGATGCTAGCTTG (sugars k3 d10 k3, PS)", "target mRNA inhibition": "-26%"}, {"sequence": "CATTACCCCAACTAAA (sugars k3 d10 k3, PS)", "target mRNA inhibition": "15%"}, {"sequence": "TAAATTGATGGGCTTT (sugars k3 d10 k3, PS)", "target mRNA inhibition": "37%"}, {"sequence": "CCCACAAACTTGCCAT (sugars k3 d10 k3, PS)", "target mRNA inhibition": "1%"}, {"sequence": "GTTACCTTGAAACCGA (sugars k3 d10 k3, PS)", "target mRNA inhibition": "47%"}, {"sequence": "CTTGAATGCAAACTAC (sugars k3 d10 k3, PS)", "target mRNA inhibition": "-6%"}, {"sequence": "GTAACTACCAGCCATT (sugars k3 d10 k3, PS)", "target mRNA inhibition": "45%"}, {"sequence": "GAATCCTGTCTGCTGC (sugars k3 d10 k3, PS)", "target mRNA inhibition": "33%"}, {"sequence": "CTGCATTTACTTGCCA (sugars k3 d10 k3, PS)", "target mRNA inhibition": "17%"}, {"sequence": "TTGTGGTTATAGCTTG (sugars k3 d10 k3, PS)", "target mRNA inhibition": "68% and 93%"}, {"sequence": "ATCATTGGGAGTTACT (sugars k3 d10 k3, PS)", "target mRNA inhibition": "54%"}, {"sequence": "GTTTAAGTCACCTTCA (sugars k3 d10 k3, PS)", "target mRNA inhibition": "63% and 38%"}, {"sequence": "TAAGGAGACAGCTTTC (sugars k3 d10 k3, PS)", "target mRNA inhibition": "16%"}, {"sequence": "TCTTGAATTACTTCCG (sugars k3 d10 k3, PS)", "target mRNA inhibition": "76% and 55%"}, {"sequence": "TCAACATTTGGCCTAC (sugars k3 d10 k3, PS)", "target mRNA inhibition": "21%"}, {"sequence": "TTAAACGGGTCATCAA (sugars k3 d10 k3, PS)", "target mRNA inhibition": "0%"}, {"sequence": "TTACACTGCTCTGGGT (sugars k3 d10 k3, PS)", "target mRNA inhibition": "2%"}, {"sequence": "CTCTAACCCAGTTTGT (sugars k3 d10 k3, PS)", "target mRNA inhibition": "36%"}, {"sequence": "GGTTATGCTTATTCCC (sugars k3 d10 k3, PS)", "target mRNA inhibition": "37%"}, {"sequence": "CTTTAGGATTCTAGAC (sugars k3 d10 k3, PS)", "target mRNA inhibition": "7%"}, {"sequence": "TCCTTCGGATGCTTCA (sugars k3 d10 k3, PS)", "target mRNA inhibition": "56%"}, {"sequence": "CTTCGCCTTCCCGTAC (sugars k3 d10 k3, PS)", "target mRNA inhibition": "35%"}]}]}
